The source of these data is US11634396B2 (priority 2021, dated 2023).

One may read the IC50 as the point on the concentration scale where inhibition reaches its midpoint.

SMILES strings stand for the structures. Where two headings read alike, the source gives them in different places.

The target in this experiment is human mOR (Homo sapiens (Human), UniProt P35372). The experiment can be described thus: cell-based.
The mark [1] stands for this setting: CHO Tag-lite human mOR stable cell line, forskolin 4 μM and DAMGO at EC90, read-out: mOR cAMP Antagonist Assay IC50.

human mOR, sequence (P35372 whole entry): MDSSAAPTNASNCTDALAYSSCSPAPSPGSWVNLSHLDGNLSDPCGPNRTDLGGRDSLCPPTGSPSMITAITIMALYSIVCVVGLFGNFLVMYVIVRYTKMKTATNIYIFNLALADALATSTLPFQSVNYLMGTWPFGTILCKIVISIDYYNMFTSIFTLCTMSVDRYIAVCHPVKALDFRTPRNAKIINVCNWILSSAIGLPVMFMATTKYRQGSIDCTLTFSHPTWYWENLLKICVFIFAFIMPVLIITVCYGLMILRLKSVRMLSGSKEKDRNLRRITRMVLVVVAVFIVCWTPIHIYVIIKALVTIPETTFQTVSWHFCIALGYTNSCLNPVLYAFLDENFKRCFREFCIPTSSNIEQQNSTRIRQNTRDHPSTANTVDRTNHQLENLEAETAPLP

For the molecule `CNC(=O)c1ccc(C[C@@H](CNC(=O)C[C@H](c2cnc(C)s2)C2(C(F)(F)F)CC2)N(C)C)c(F)c1` [Compound 123, 4-((S)-2-(dimethylamino)-3-((S)-3-(2-methylthiazol-5-yl)-3-(1-(trifluoromethyl)cyclopropyl)propanamido)propyl)-3-fluoro-N-methylbenzamide], the IC50 is less than 300 nM.

In the case of `CNC(=O)c1ccc(C[C@@H](CNC(=O)C[C@H](c2ccc(C)nc2)C2(C(F)(F)F)CC2)N(C)C)c(C)c1F` [Compound 125, 4-((S)-2-(dimethylamino)-3-((R)-3-(6-methylpyridin-3-yl)-3-(1-(trifluoromethyl)cyclopropyl)propanamido)propyl)-2-fluoro-N,3-dimethylbenzamide], the IC50 was less than 300 nM.

For the molecule `CNC(=O)c1ccc(C[C@@H](CNC(=O)C[C@@H](CC(C)C)c2cccnc2)N(C)C)c(C)c1` [Compound 126, 4-((S)-2-(dimethylamino)-3-((R)-5-methyl-3-(pyridin-3-yl)hexanamido)propyl)-N,3-dimethylbenzamide], the IC50 is greater than 3000 nM.

Turning to `CNC(=O)c1ccc(C[C@@H](CNC(=O)C[C@H](c2ccncc2F)C2(C(F)(F)F)CC2)N(C)C)c(C)c1` [Compound 127, 4-((S)-2-(dimethylamino)-3-((R)-3-(3-fluoropyridin-4-yl)-3-(1-(trifluoromethyl)cyclopropyl)propanamido)propyl)-N,3-dimethylbenzamide], the IC50 was less than 300 nM.

As to `CNC(=O)c1ccc(C[C@@H](CNC(=O)C[C@H](c2ccc(F)cc2)C2(C(F)(F)F)CC2)N(C)C)c(C)c1` [Compound 128, 4-((S)-2-(dimethylamino)-3-((R)-3-(4-fluorophenyl)-3-(1-(trifluoromethyl)cyclopropyl)propanamido)propyl)-N,3-dimethylbenzamide], the IC50 was less than 300 nM.

Regarding `CNC(=O)c1ccc(C[C@@H](CNC(=O)C[C@H](c2cccnc2)C(C)(C)C)N(C)C)c(C)c1` [Compound 129, 4-((S)-3-((S)-4,4-dimethyl-3-(pyridin-3-yl)pentanamido)-2-(dimethylamino)propyl)-N,3-dimethylbenzamide], the IC50 was less than 300 nM.

In the case of `CNC(=O)c1ccc(C[C@@H](CNC(=O)C[C@H](c2cccnc2)C2(C(F)(F)F)CC2)N(C)C)c(C)c1` [Compound 131, 4-((S)-2-(dimethylamino)-3-((R)-3-(pyridin-3-yl)-3-(1-(trifluoromethyl)cyclopropyl)propanamido)propyl)-N,3-dimethylbenzamide], the IC50 is less than 300 nM.

Turning to `CNC(=O)c1ccc(C[C@@H](CNC(=O)C[C@H](c2ccc(C)nc2)C2(C(F)(F)F)CC2)N(C)C)c(C)c1` [Compound 132, 4-((S)-2-(dimethylamino)-3-((R)-3-(6-methylpyridin-3-yl)-3-(1-(trifluoromethyl)cyclopropyl)propanamido)propyl)-N,3-dimethylbenzamide], the IC50 is less than 300 nM.

Consider `CNC(=O)c1ccc(C[C@@H](CNC(=O)C[C@@H](CC2CC2)c2cccnc2)N(C)C)c(C)c1` [Compound 133, 4-((S)-3-((R)-4-cyclopropyl-3-(pyridin-3-yl)butanamido)-2-(dimethylamino)propyl)-N,3-dimethylbenzamide], for which the IC50 is greater than 3000 nM.

As for `CNC(=O)c1ccc(C[C@@H](CNC(=O)CC(c2ccncc2)C2(C(F)(F)F)CC2)N(C)C)c(C)c1` (stereo partly drawn) [Compound 134, 4-((2S)-2-(dimethylamino)-3-(3-(pyridin-4-yl)-3-(1-(trifluoromethyl)cyclopropyl)propanamido)propyl)-N,3-dimethylbenzamide], the IC50 was less than 300 nM.

As to `CNC(=O)c1ccc(C[C@@H](CNC(=O)C[C@H](c2cnc(C)nc2)C2(C(F)(F)F)CC2)N(C)C)c(C)c1` [Compound 135, 4-((S)-2-(dimethylamino)-3-((R)-3-(2-methylpyrimidin-5-yl)-3-(1-(trifluoromethyl)cyclopropyl)propanamido)propyl)-N,3-dimethylbenzamide], the IC50 (read-out: mOR cAMP Antagonist Assay IC50) is greater than 3000 nM.

For the molecule `CNC(=O)c1ccc(C[C@@H](CNC(=O)C[C@H](CC2CC2)c2ccccn2)N(C)C)c(C)c1` [Compound 139, 4-((S)-3-((S)-4-cyclopropyl-3-(pyridin-2-yl)butanamido)-2-(dimethylamino)propyl)-N,3-dimethylbenzamide], the IC50 was greater than 3000 nM.

In the case of `CNC(=O)c1ccc(C[C@@H](CNC(=O)C[C@@H](CC(C)C)c2ccccn2)N(C)C)c(C)c1` [Compound 140, 4-((S)-2-(dimethylamino)-3-((R)-5-methyl-3-(pyridin-2-yl)hexanamido)propyl)-N,3-dimethylbenzamide], the IC50 was greater than 3000 nM.

For `CNC(=O)c1cc(C)c(C[C@@H](CNC(=O)C[C@H](c2ccccc2)C2(C(F)(F)F)CC2)N(C)C)cc1F` [Compound 144, 4-((S)-2-(dimethylamino)-3-((R)-3-phenyl-3-(1-(trifluoromethyl)cyclopropyl)propanamido)propyl)-2-fluoro-N,5-dimethylbenzamide], the IC50 is greater than 3000 nM.

`CNC(=O)c1ccc(C[C@@H](CNC(=O)C[C@@H](c2cncc(F)c2)C(C)(C)C)N(C)C)cc1F` [Compound 151, 4-((S)-2-(dimethylamino)-3-((R)-3-(5-fluoropyridin-3-yl)-4,4-dimethylpentanamido)propyl)-2-fluoro-N-methylbenzamide]: the IC50 was in the range of 300 to 3000 nM.

Regarding `CNC(=O)c1ccc(C[C@@H](CNC(=O)C[C@H](c2cnc(C)nc2)C2(C(F)(F)F)CC2)N(C)C)cc1F` [Compound 152, 4-((S)-2-(dimethylamino)-3-((R)-3-(2-methylpyrimidin-5-yl)-3-(1-(trifluoromethyl)cyclopropyl)propanamido)propyl)-2-fluoro-N-methylbenzamide], the half-inhibitory concentration (IC50) was greater than 3000 nM.

As for `CNC(=O)c1ccc(C[C@@H](CNC(=O)C[C@@H](c2ccccn2)C2(C(F)(F)F)CC2)N(C)C)cc1F` [Compound 153, 4-((S)-2-(dimethylamino)-3-((R)-3-(pyridin-2-yl)-3-(1-(trifluoromethyl)cyclopropyl)propanamido)propyl)-2-fluoro-N-methylbenzamide], the IC50 was greater than 3000 nM.

Take `CNC(=O)c1ccc(C[C@@H](CNC(=O)C[C@@H](c2ccccc2)C2(C(F)(F)F)CC2)N(C)C)cc1F` [Compound 154, 4-((S)-2-(dimethylamino)-3-((S)-3-phenyl-3-(1-(trifluoromethyl)cyclopropyl)propanamido)propyl)-2-fluoro-N-methylbenzamide]: the IC50 was less than 300 nM.

Turning to `CCN(CC)[C@H](CNC(=O)C[C@@H](c1ccccc1)C(C)(C)C)Cc1ccc(C(=O)NC)c(F)c1` [Compound 166, 4-((S)-2-(diethylamino)-3-((R)-4,4-dimethyl-3-phenylpentanamido)propyl)-2-fluoro-N-methylbenzamide], the IC50 is less than 300 nM.

For the molecule `Cc1ncc([C@@H](CC(=O)NC[C@H](Cc2ccc3[nH]c(=O)oc3c2C)N(C)C)C2(C(F)(F)F)CC2)cn1` [Compound 169, (R)-N-((S)-2-(dimethylamino)-3-(7-methyl-2-oxo-2,3-dihydrobenzo[d]oxazol-6-yl)propyl)-3-(2-methylpyrimidin-5-yl)-3-(1-(trifluoromethyl)cyclopropyl)propanamide], the IC50 is greater than 3000 nM.

Consider `Cc1c(C[C@@H](CNC(=O)C[C@H](c2ccncc2)C2(C(F)(F)F)CC2)N(C)C)ccc2[nH]c(=O)oc12` [Compound 170, (R)-N-((S)-2-(dimethylamino)-3-(7-methyl-2-oxo-2,3-dihydrobenzo[d]oxazol-6-yl)propyl)-3-(pyridin-4-yl)-3-(1-(trifluoromethyl)cyclopropyl)propanamide], for which the IC50 was less than 300 nM.

As to `CN(C)[C@H](CNC(=O)C[C@@H](c1cccnc1)C1(C(F)(F)F)CC1)Cc1ccc2[nH]c(=O)oc2c1` [Compound 176, (S)-N-((S)-2-(dimethylamino)-3-(2-oxo-2,3-dihydrobenzo[d]oxazol-6-yl)propyl)-3-(pyridin-3-yl)-3-(1-(trifluoromethyl)cyclopropyl)propanamide], under setting [1], the IC50 was less than 300 nM.

With `Cc1c(C[C@@H](CNC(=O)C[C@@H](CC2CC2)c2cccnc2)N(C)C)ccc2c1CC(=O)N2` [Compound 179, (R)-4-cyclopropyl-N-((S)-2-(dimethylamino)-3-(4-methyl-2-oxoindolin-5-yl)propyl)-3-(pyridin-3-yl)butanamide], the IC50 is less than 300 nM.

In the case of `Cc1c(C[C@@H](CNC(=O)C[C@H](c2cccnc2)C2(C(F)(F)F)CC2)N(C)C)ccc2c1CC(=O)N2` [Compound 180, (R)-N-((S)-2-(dimethylamino)-3-(4-methyl-2-oxoindolin-5-yl)propyl)-3-(pyridin-3-yl)-3-(1-(trifluoromethyl)cyclopropyl)propanamide], the IC50 is less than 300 nM.

For the molecule `CN(C)[C@H](CNC(=O)CC(c1ncccn1)C1(C(F)(F)F)CC1)Cc1ccc2c(c1)CC(=O)N2` (stereo partly drawn) [Compound 188, N-((S)-2-(dimethylamino)-3-(2-oxoindolin-5-yl)propyl)-3-(pyrimidin-2-yl)-3-(1-(trifluoromethyl)cyclopropyl)propenamide], the half-inhibitory concentration (IC50) under setting [1] fell in the range of 300 to 3000 nM.

In the case of `CN(C)[C@H](CNC(=O)C[C@H](c1ccccc1)C1(C(F)(F)F)CC1)Cc1ccc2c(c1)CC(=O)N2` [Compound 189, (R)-N-((S)-2-(dimethylamino)-3-(2-oxoindolin-5-yl)propyl)-3-phenyl-3-(1-(trifluoromethyl)cyclopropyl)propanamide], the IC50 was less than 300 nM.

With `CN(C)[C@H](CNC(=O)C[C@@H](c1ccccc1)C1(C(F)(F)F)CC1)Cc1ccc2[nH]ncc2c1` [Compound 190, (S)-N-((S)-2-(dimethylamino)-3-(1H-indazol-5-yl)propyl)-3-phenyl-3-(1-(trifluoromethyl)cyclopropyl)propanamide], the IC50 under setting [1] lay within 300 to 3000 nM.

Regarding `CN(C)[C@H](CNC(=O)C[C@H](c1ccncc1)C1(C(F)(F)F)CC1)Cc1ccc2[nH]ncc2c1Cl` [Compound 191, (R)-N-((S)-3-(4-chloro-1H-indazol-5-yl)-2-(dimethylamino)propyl)-3-(pyridin-4-yl)-3-(1-(trifluoromethyl)cyclopropyl)propanamide], the IC50 under setting [1] is less than 300 nM.
